Experimental data: paper PMC3445549, “The Mode of Action of Isocyanide in Three Aquatic Organisms, Balanus amphitrite, Bugula neritina and Danio rerio” (PLoS ONE, 2012)

Target: T1, NADH-ubiquinone oxidoreductase (Amphibalanus amphitrite, UniProt A0A6A4V2F0)
T1 construct: gene NDUFV1; native protein from solubilised cyprid lysate; 50 kD band
Experiment: affinity pull-down on Affi-gel […] matrix, SDS-PAGE, UPLC-MS/MS
Assay type: biochemical
Conditions: isocyanide 2 coupled to matrix via its amine (labelled compound); competed by 0.4 mg/ml free isocyanide 2; cyprid lysate; wash 500 mM NaCl, 1% Triton X100

T1 sequence (A0A6A4V2F0 27-476): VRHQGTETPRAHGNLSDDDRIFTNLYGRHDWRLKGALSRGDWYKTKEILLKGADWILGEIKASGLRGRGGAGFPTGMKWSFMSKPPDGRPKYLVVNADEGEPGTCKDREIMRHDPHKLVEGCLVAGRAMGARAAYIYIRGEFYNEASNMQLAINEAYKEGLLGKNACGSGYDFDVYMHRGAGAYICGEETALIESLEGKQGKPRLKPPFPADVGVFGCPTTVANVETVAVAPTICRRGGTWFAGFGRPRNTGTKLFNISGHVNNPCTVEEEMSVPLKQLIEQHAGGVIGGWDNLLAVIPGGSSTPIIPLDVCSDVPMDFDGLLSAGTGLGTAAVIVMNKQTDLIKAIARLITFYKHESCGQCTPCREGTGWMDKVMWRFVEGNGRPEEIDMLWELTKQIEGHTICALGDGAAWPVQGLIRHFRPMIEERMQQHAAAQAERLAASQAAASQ

[C-]#[N+]C(C)(C)CCCCCCCCCN [compound 2, 10-isocyano-10-methylundecan-1-amine]
affinity pull-down on Affi-gel 10 matrix, SDS-PAGE, UPLC-MS/MS: NADH-ubiquinone oxidoreductase was specifically identified in this protein band (Table S2)
